Assay results as given in patent US9700637B2, “Reaction-based fluorescent probes for detecting zinc” (Massachusetts Institute of Technology, priority 2013, dated 2017).

Tests used:
HeLa cells = experiment: Live cell fluorescence imaging: localization, co-localization and uptake; assay type: cell-based; details: fluorescence microscopy, live HeLa cells (Table 1)
Procedure: FIG. 6 depicts live cell imaging of HeLa cells. 500 nM mitotracker Red was bath-applied along with 1 μM DA-ZP1-TPP for 30 min at 37° C. and 5% CO2. After exposure to 25 μM 1:2 zinc:pyrithione, fluorescent images were acquired and the co-localization of the two sensors was assessed. The calculated Pearson's correlation coefficient (r) was r=0.581±0.097 (n=9), which represents the average of 9 ROIs over three independent plates.
FIG. 14 depicts live cell imaging of HeLa cells. 1 μM Lysotracker Red was bath-applied along with 2 μM ZP1-TPP. The calculated Pearson's correlation coefficient (r) was r=0.45±0.15, which represents the average of 9 ROIs over three independent plates.
FIG. 24 depicts fluorescence images of live HeLa cells. HeLa cells were pretreated with a 1 μM solution of DA-ZP1-TPP in dye- and serum-free medium for 30 min (37° C., 5% CO2). […] The signal from MitoTracker Red (c) correlates well with the signal from the zinc-bound sensor (d). Pearson's r=0.64±0.1 (n=18).
FIG. 27 depicts deconvoluted fluorescence microscopy images of live HeLa cells pretreated with ZP1-R9 (5 μM) or DA-ZP1-R9 (2.5 μM) and the indicated organelle stain. Top, ZP1-R9: (a) Differential interference contrast (DIC) image, (b) signal from ZP1-R9, (c) signal from LysoTracker Red, (d) overlay of (b) and (c). Pearson's r=0.42±0.16 (n=8). Bottom, DA-ZP1-R9: (e) DIC, (f) signal from DA-ZP1-R9 after treatment with 25 μM ZnPT, (g) signal from Hoechst 33258, (h) overlay of (f) and (g). Scale bar=25 μm.
FIG. 29 depicts deconvoluted fluorescence microscopy images of live HeLa cells pretreated with 1 μM DA-ZP1-R9 and 100 nM Dextran Red. (a) Differential interference contrast (DIC), (b) signal from DA-ZP1-R9 after addition of 25 μM ZnPT (c) signal from Dextran Red, (d) overlay of (b) and (c). Pearson's r=0.55±0.12 (n=11). Scale bar=25 μm.
FIG. 31 depicts deconvoluted fluorescence microscopy images of ZP1-(Fxr)3 and DA-ZP1-r(Fxr)3 in live HeLa cells. Top, cells pretreated with medium containing 2.5 μM of ZP1-(Fxr)3: (a) Differential interference contrast (DIC) image, (b) signal from ZP1-(Fxr)3, (c) signal from Dextran Red, (d) overlay of (b) and (c). Pearson's r=0.71±0.07. Bottom, cells pretreated with 1 μM DA-ZP1-r(Fxr)3: (e) DIC, (f) signal from DA-ZP1-r(Fx)3 after treatment with 25 μM ZnPT, (g) signal from MitoTracker Red, (h) overlay of (f) and (g). Pearson's r=0.41±0.09. Scale bar=25 μm.
FIG. 33 depicts deconvoluted fluorescence microscopy images of DCF-r(Fxr)3 and DA-DCF-r(Fxr)3 in live HeLa cells. Top, cells pretreated with 5 μM DCF-r(Fxr)3 and 500 nM MitoTracker Red for 30 min. (a) differential contrast image (DIC), (b) signal from DCF-r(Fxr)3, (c) signal from MitoTracker Red. Bottom, cells pretreated with 5 μM DA-DCF-r(Fxr)3 and 500 nM MitoTracker Red for 30 min. (d) DIC, (e) signal from DCF-r(Fxr)3, (f) signal from MitoTracker Red. The global Pearson's r=0.57±0.16 (n=37). Cells with high levels of DA-DCF-r(Fxr)3 (e, red outline) have a higher Pearson's r=0.83±0.08 (n=10). Scale bar=25 μm.
We used HeLa cells as a model system to evaluate the ability of DA-ZP1-TPP to target mitochondria and respond to changes in intracellular zinc levels. […] Over a two-hour period, the fluorescence intensity from the sensor remained constant, implying that the acetylated form is stable against intracellular esterases (FIG. 24e). […] Addition of 100 μM TPEN attenuated the fluorescence signal by ˜2.4-fold (FIG. 24f). […]

[1] = Charge of predominate species in solution at physiological pH; assay type: physicochemical; details: physiological pH = 7.4
[2] = Octanol/aqueous buffer partition coefficient (modified shake-flask); assay type: physicochemical; details: octanol/water, buffered at pH 7 with 10 mM Tris
Excerpt: To understand better the limitations of TPP in directing fluorophores to mitochondria, we prepared two additional TPP-derivatives, one based on 6-carboxyfluorescein (FL-TPP) and one on coumarin 343 (C343-TPP). […] To test this hypothesis, we conducted live cell fluorescence imaging experiments with FL-TPP. […] Not only did FL-TPP fail to accumulate in mitochondria, it was cell-impermeable under our imaging conditions. In contrast, the cationic C343-TPP strongly colocalized with MitoTracker Red in live HeLa cells (Pearson's r=0.72±0.02). To quantify the effect of hydrophobicity in mitochondrial-targeting, we measured the octanol/aqueous buffer partition coefficient (log P) for our TPP constructs and two MitoTracker dyes. We then tabulated the log P, charge of the predominate species in solution at physiological pH, and cellular localization for each dye (Table 1). […] Along with cationic charge, a minimum level of lipophilicity must be reached in order to evade endo/lysosomal sequestration and enable effective mitochondrial targeting.

Charge of the predominate species in solution [1] | log P [2] | SMILES | Localization (HeLa cells)
+1 | 0.74±0.18 | CC(=O)Oc1c(Cl)cc2c(c1CN(Cc1ccccn1)Cc1ccccn1)Oc1c(cc(Cl)c(OC(C)=O)c1CN(Cc1ccccn1)Cc1ccccn1)C21OC(=O)c2ccc(C(=O)NCC[P+](c3ccccc3)(c3ccccc3)c3ccccc3)cc21 [DA-ZP1-TPP] | Mitochondria
Zwitterion | −0.11 ± 0.01 | O=C(NCC[P+](c1ccccc1)(c1ccccc1)c1ccccc1)c1ccc2c(c1)C1(OC2=O)c2cc(Cl)c(O)c(CN(Cc3ccccn3)Cc3ccccn3)c2Oc2c1cc(Cl)c(O)c2CN(Cc1ccccn1)Cc1ccccn1 [ZP1-TPP] | Endo/lysosome
